How the values were obtained:
[1] = Particle size distribution analysis of tolbutamide particles; format: physicochemical
Text: (§1) In the embodiments 1 to 4, the usage amount of the bulk drug of tolbutamide is in a range of 2 to 5 gram, and the other operation conditions, e.g. the pressures and the temperature of mixing, the temperatures before and after the expansion and the particle sizes of the tolbutamide micro-particles, are listed in Table 1 below.
as §1, with “embodiments 5” for “embodiments 1”, “to 8,” for “to 4,”, “Table 2” for “Table 1”
FIG. 1A is the schematic diagram showing the distribution and the cumulative distribution of the particle sizes for the bulk drug of tolbutamide, wherein the average particle size is 89.4 micron. FIG. 1B is the schematic diagram showing the distribution and the cumulative distribution of the particle sizes for the tolbutamide micro-particles obtained by using the method of the rapid expansion of supercritical solution (RESS) in the fourth embodiment. FIG. 1C is the schematic diagram showing the distribution and the cumulative distribution of the particle sizes for the tolbutamide micro-particles obtained by using the method of RESS with solid cosolvent (RESS-SC) in the eighth embodiment. […]

[2] = cited from earlier work

Row | Compound | average particle size ([1]; Table 1, RESS method, supercritical CO2, no cosolvent, bulk drug as comparison) | average particle size ([1]; text on FIGS. 1A-1D) | solubility in ethanol and chloroform ([2]; ethanol and chloroform) | solubility in water ([2]; water)
1 | CCCCNC(=O)NS(=O)(=O)c1ccc(C)cc1 [Bulk drug of tolbutamide, tolbutamide] | 89.4 μm | 89.4 micron | – | –
2 | CCCCNC(=O)NS(=O)(=O)c1ccc(C)cc1 [tolbutamide] | – | – | soluble in ethanol and chloroform | almost insoluble in the water
